{"source": "paper PMC5065108", "about": "(Molecular cancer therapeutics, 2016)", "key": {"[1]": {"molecular_target": "p210 BCR-ABL (wild type) (Homo sapiens, UniProt P00519)", "assay": "Western blot of phospho-c-ABL", "assay_type": "cell-based"}, "[2]": {"molecular_target": "p210 BCR-ABL T315I (p210^T315I) (Homo sapiens, UniProt P00519, T315I)", "assay": "Western blot of phospho-c-ABL", "assay_type": "cell-based"}}}
{"smiles": "Cc1cnc(Nc2ccc(N3CCN(C)CC3)cc2)nc1Nc1cccc(S(=O)(=O)NC(C)(C)C)c1", "note": "[TG101209]", "values": [{"measurement": "IC50", "setting": "[1]", "value": 2.5, "unit": "µM"}, {"measurement": "IC50", "setting": "[2]", "value": 17.5, "unit": "µM"}]}
